Laboratory results published in patent publication US8680094B2, “1, 4-benzoxazine compounds and derivatives thereof as therapeutic drugs for the treatment of neurodegenerative conditions” (Board of Regents, The University of Texas System, priority 2008, dated 2014).

How the values were obtained:
Assay in all cases: In vitro kinase activity
Type in all cases: biochemical
Details in all cases: percentage of control assays without compound, mean of duplicate
p38β = p38β (Homo sapiens, UniProt Q15759)
Method: (§1) To better understand the mechanism of action of the compounds of the present invention, but in no way a limitation; the effects of HSB-13 and ASK-2a on 20 different kinases were examined in vitro. At 500 nM concentration, ASK-2a inhibited the kinase activities of GSK3α, GSK3β, p38α, p38β, JNK3, MLK3, and B-Raf substantially. […] As described above, ASK-2a protects cerebellar granule neurons against LK-induced death but is ineffective against HCA-induced toxicity of HT-22 cells. In contrast, HSB-13 is protective in both paradigms. […] Previous studies have established that CDK inhibitors can protect neurons against a number of different apoptotic stimuli.
(§2) The activity of each kinase was measured in vitro in the presence either 100 nM or 500 nM ASK-2a. Kinase activity is expressed as a percentage of that in control assays (without ASK-2a). The values are mean of assays performed in duplicate. Substantial inhibition of kinase activity (>20%) is in bold type.
(§3) Table 3: Effect of HSB-13 at 500 nM on 20 different kinases measured in vitro. Kinase activity is expressed as a percentage of that in control assays (without HSB-13). The values are mean of assays performed in duplicate. Substantial inhibition of kinase activity (>20%) is in bold type.

CDK5/p25 = CDK5/p25 (Homo sapiens, UniProt Q00535)
Method: as §1, §2, §3

JNK3 = JNK3 (Homo sapiens, UniProt P53779)
Method: as §1, §2, §3

CDK4/Cyclin D1 = CDK4/Cyclin D1 (Homo sapiens, UniProt P11802)
Method: as §1, §2, §3

CDK6/Cyclin D3 = CDK6/Cyclin D3 (Homo sapiens, UniProt Q00534)
Method: as §1, §2, §3

LRRK2 = LRRK2 (Homo sapiens, UniProt Q5S007)
Method: as §1, §2, §3

CDK1/Cylcin A1 = CDK1/Cylcin A1 (Homo sapiens, UniProt P06493)
Method: as §1, §2, §3

B-Raf = target: T1, B-Raf (Homo sapiens, UniProt P15056)
T1 construct: in some cases SignalChem; host or cells: Sf9 insect cells (baculovirus)
Method: as §1, §2, §3
(§4) Effect of chemical compounds c-Raf and B-Raf purified from insect cells. In vitro kinase assays were performed using purified kinase (expressed by baculovirus in Sf9 insect cells) and synthetic substrates under standard conditions using the Kinase Profiling service of Upstate Biotechnology. Briefly, for each assay 5-10 mU of purified kinase is incubated with the chemical compound (0.1-1 uM concentration) in a buffer containing 8 mM MOPS, pH 7.2, 0.2 mM EDTA, 10 mM Mg Acetate and [γ-^33P-ATP] for 40 min at room temperature. MBP is used as substrate. Kinase activity is quantified by measuring ^33P incorporation by spotting an aliquot on P30 filters, washing in 50 mM phosphoric acid and scintillation counting.
(§5) In some cases, effects on c-Raf and B-Raf are assayed by SignalChem as follows. Protein kinase assays (in duplicate or triplicate) were performed at ambient temperature for 20-40 minutes in a final volume of 25 μl. The assay was initiated by the addition of ^33P-ATP and the reaction mixture incubated at ambient temperature for 20-40 minutes, depending on the protein kinase target. After the incubation period, the assay was terminated by spotting 10 μl of the reaction mixture onto Multiscreen phosphocellulose P81 plate. The Multiscreen phosphocellulose P81 plate was washed 3 times for approximately 15 minutes each in a 1% phosphoric acid solution.
(§6) The radioactivity on the P81 plate was counted in the presence of scintillation fluid in a Trilux scintillation counter. Blank control is included all the assay components except the addition of the appropriate substrate (replace with equal volume of assay dilution buffer), was set up for each protein kinase target. The corrected activity for each protein kinase target was determined by removing the blank control value.

c-Raf = target: T2, c-Raf (Homo sapiens, UniProt P04049)
T2 construct: in some cases SignalChem; host or cells: Sf9 insect cells (baculovirus)
Method: as §1, §2, §3, §4, §5, §6

[1] = 100 nM, listed as ASK2a, 0.1 µM

Sequence of p38β (Q15759 whole entry): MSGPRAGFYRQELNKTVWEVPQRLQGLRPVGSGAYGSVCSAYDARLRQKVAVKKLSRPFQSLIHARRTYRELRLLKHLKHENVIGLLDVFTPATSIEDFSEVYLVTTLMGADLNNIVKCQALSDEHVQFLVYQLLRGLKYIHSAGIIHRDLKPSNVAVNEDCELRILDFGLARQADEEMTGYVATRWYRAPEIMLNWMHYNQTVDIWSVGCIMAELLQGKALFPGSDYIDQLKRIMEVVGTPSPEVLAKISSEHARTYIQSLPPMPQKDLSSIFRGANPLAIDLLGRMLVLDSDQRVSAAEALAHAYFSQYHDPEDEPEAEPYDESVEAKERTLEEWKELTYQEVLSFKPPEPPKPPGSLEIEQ
Sequence of CDK1/Cylcin A1 (P06493 whole entry, species assumed): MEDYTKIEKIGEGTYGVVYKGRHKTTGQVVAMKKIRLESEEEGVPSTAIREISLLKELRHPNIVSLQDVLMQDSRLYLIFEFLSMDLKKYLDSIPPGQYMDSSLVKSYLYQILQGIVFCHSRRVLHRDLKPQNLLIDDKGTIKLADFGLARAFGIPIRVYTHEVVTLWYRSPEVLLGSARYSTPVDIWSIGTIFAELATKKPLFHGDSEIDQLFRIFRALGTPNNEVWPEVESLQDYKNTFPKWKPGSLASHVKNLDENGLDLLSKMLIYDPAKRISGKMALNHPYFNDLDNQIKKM
Sequence of CDK1/Cylcin A1 (P78396 whole entry partner, species assumed): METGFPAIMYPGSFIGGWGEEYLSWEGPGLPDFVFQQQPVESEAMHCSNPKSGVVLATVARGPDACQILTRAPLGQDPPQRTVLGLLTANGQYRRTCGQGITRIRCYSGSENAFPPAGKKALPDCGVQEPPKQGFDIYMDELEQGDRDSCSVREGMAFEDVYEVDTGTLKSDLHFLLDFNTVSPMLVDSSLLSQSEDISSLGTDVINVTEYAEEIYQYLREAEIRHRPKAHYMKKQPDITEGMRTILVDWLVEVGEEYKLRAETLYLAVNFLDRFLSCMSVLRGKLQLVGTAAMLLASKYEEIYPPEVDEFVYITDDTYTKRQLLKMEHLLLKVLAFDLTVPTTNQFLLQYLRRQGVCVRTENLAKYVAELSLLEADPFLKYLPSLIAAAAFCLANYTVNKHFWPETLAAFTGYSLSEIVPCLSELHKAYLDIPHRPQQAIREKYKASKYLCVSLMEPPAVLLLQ
Sequence of CDK5/p25 (Q00535 whole entry, species assumed): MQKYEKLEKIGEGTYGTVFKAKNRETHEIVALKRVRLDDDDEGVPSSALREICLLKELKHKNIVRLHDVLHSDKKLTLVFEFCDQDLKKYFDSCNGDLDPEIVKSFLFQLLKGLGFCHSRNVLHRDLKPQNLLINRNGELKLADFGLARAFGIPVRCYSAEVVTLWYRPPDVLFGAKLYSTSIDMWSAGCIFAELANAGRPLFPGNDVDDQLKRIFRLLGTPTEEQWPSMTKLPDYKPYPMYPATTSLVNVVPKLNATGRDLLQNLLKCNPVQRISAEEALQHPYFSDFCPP
Sequence of CDK5/p25 (Q15078 99-307 partner limits assumed, species assumed): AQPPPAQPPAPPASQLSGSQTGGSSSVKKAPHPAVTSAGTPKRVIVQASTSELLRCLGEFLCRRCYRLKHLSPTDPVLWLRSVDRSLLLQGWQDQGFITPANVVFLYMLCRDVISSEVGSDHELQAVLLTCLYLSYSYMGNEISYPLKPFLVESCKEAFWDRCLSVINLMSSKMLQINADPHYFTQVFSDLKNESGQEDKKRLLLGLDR
T2 sequence (P04049 whole entry): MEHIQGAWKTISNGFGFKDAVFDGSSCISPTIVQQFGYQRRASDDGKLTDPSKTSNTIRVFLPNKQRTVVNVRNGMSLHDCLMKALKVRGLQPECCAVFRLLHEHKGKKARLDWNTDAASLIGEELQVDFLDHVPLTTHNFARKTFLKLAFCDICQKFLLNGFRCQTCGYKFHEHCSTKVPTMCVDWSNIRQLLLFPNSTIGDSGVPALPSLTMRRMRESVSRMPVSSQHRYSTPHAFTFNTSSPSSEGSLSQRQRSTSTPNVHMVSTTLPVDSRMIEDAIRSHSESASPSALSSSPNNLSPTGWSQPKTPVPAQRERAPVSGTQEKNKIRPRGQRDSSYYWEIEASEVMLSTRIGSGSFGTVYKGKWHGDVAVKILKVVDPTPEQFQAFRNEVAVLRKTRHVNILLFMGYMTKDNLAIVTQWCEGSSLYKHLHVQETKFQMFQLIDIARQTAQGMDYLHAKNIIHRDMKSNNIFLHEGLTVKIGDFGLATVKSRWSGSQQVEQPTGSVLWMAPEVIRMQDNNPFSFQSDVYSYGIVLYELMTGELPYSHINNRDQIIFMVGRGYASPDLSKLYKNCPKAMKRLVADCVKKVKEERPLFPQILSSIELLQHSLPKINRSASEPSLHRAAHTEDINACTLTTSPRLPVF
Sequence of JNK3 (P53779 whole entry, species assumed): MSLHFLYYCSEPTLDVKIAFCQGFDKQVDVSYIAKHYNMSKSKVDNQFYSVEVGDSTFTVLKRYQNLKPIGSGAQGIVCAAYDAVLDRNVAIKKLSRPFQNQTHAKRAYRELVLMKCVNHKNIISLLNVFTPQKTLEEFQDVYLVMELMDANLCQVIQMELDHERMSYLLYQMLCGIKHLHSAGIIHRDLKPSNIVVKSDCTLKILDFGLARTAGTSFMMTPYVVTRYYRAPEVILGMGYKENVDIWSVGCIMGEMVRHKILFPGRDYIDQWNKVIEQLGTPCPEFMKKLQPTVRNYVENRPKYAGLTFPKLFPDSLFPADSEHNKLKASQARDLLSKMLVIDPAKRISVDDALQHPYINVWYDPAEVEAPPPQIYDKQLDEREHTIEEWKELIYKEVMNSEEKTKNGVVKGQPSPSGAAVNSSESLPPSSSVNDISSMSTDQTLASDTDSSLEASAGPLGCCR
T1 sequence (P15056 whole entry): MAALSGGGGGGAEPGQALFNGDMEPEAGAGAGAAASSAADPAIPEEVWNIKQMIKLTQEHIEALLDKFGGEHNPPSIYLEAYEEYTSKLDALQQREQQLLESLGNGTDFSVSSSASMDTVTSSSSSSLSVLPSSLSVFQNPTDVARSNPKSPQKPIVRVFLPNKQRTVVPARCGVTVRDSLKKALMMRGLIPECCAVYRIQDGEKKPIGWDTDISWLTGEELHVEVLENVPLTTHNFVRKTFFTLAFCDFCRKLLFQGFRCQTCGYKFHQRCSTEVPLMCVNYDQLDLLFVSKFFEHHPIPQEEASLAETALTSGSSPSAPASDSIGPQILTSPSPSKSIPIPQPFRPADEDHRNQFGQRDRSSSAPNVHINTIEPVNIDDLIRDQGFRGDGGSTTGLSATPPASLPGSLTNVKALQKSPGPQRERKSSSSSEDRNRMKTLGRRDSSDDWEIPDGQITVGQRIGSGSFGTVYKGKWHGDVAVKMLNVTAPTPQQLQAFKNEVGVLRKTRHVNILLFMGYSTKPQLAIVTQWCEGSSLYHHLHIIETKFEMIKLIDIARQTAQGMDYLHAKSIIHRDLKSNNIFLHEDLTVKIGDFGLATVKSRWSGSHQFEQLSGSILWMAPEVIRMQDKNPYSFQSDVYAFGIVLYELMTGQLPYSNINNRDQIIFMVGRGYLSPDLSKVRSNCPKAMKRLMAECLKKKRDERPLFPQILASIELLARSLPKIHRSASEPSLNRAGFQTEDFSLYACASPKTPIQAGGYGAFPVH
Sequence of CDK4/Cyclin D1 (P11802 whole entry, species assumed): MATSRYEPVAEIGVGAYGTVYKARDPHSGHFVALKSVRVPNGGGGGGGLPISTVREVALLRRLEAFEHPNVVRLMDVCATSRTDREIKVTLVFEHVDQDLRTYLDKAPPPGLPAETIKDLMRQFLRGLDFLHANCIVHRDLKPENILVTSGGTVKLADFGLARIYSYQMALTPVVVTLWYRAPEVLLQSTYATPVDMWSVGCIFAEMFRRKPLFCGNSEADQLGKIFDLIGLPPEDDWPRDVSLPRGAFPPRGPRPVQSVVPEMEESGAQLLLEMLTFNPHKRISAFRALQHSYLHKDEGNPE
Sequence of CDK4/Cyclin D1 (P24385 whole entry partner, species assumed): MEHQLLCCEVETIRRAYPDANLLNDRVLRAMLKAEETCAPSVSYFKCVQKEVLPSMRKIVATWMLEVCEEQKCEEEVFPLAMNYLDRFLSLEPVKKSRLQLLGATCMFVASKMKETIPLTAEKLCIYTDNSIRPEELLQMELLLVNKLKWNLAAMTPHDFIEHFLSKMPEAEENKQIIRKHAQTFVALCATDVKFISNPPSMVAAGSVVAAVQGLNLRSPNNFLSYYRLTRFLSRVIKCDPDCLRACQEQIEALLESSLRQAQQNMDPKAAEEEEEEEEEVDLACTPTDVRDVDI
Sequence of CDK6/Cyclin D3 (Q00534 whole entry, species assumed): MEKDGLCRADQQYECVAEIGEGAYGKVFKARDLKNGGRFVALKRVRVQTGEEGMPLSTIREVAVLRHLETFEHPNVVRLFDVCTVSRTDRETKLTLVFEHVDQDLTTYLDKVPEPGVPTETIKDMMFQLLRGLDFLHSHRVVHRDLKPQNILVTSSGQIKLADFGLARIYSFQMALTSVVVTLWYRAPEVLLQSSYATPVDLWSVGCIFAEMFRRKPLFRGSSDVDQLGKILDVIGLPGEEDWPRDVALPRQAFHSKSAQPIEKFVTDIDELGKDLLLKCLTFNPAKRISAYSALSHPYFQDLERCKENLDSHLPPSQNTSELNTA
Sequence of CDK6/Cyclin D3 (P30281 whole entry partner, species assumed): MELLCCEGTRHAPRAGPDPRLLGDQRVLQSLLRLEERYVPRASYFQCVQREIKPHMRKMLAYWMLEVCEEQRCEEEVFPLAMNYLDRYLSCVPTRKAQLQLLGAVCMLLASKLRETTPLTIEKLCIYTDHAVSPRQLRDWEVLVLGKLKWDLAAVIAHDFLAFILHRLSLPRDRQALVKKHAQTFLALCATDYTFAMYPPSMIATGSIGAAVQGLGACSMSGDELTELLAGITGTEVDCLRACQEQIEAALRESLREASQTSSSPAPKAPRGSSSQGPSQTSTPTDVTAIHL

Structure (SMILES) | % ACTIVITY (CDK5/p25; 100 nM) [%] | % ACTIVITY (CDK4/Cyclin D1; 100 nM) [%] | % ACTIVITY (CDK4/Cyclin D1; 500 nM) [%] | % ACTIVITY (CDK6/Cyclin D3; 100 nM) [%] | % ACTIVITY (CDK6/Cyclin D3; 500 nM) [%] | % ACTIVITY (LRRK2; 100 nM) [%] | % ACTIVITY (LRRK2; 500 nM) [%] | % ACTIVITY (CDK1/Cylcin A1; 100 nM) [%] | % ACTIVITY (c-Raf; 100 nM) [%] | also measured
O=C1Nc2ccccc2OC1=Cc1cc(Br)c(O)c(Br)c1 [ASK-2a] | 100 | 93 | 97 | 104 | 99 | 96 | 94 | 101 | 92 | % ACTIVITY (p38β; 100 nM, 0.1 µM): 33%; % ACTIVITY (p38β; [1]): inhibited efficiently; % ACTIVITY (CDK5/p25; 500 nM): 96%; % ACTIVITY (JNK3; 100 nM, 0.1 µM): 94%; % ACTIVITY (JNK3; [1]): inhibited efficiently; % ACTIVITY (CDK1/Cylcin A1; 500 nM): 88%; % ACTIVITY (B-Raf; 100 nM, 0.1 µM): 79%; % ACTIVITY (B-Raf; [1]): inhibited efficiently; % ACTIVITY (c-Raf; 500 nM): 88%
Nc1ccc2c(c1)NC(=O)/C(=C/c1cc(Br)c(O)c(Br)c1)O2 [HSB-13, (Z)-6-amino-2-(3,′5′-dibromo-4′-hydrozybenzylidene)-2H-benzo[b][1,4]oxazin-3(4H)-one] | 84 | 103 | 88 | 99 | 89 | 97 | 88 | 95 | 97 | % ACTIVITY (p38β; 500 nM): 10%; % ACTIVITY (JNK3; 100 nM): 92%; % ACTIVITY (JNK3; 500 nM): 92%; % ACTIVITY (B-Raf; 500 nM): 43%
